Measured values from US5565484A, “Benzenesulphonylindole derivatives for the preparation of medicines” (Sanofi, priority 1993, dated 1996).
Where two headings read alike, the source gives them in different places.

How the values were obtained:
[1] = test system: Ca^++ surcharge in arterial regions (femoral, mesenteric, aortic etc.); test: Inhibition of the Ca++ surcharge after treatment with vitamin D3 in rats; format: in vivo, rat; conditions: administered twice daily; for minimal effective dose: Rattus norvegicus, 72 h, oral, 3 days
Protocol: 1) Inhibition of the Ca^++ surcharge after treatment with vitamin D3 in rats
A test was performed on rats, to which 300,000 IU/kg of vitamin D3 were administered intramuscularly, followed by oral administration of a daily dose of the compound to be studied. The oral treatment using the compound to be tested was continued for 3 days, the animals were sacrificed and the Ca^++ was then assayed in various arterial regions (femoral, mesenteric, aortic etc.).

[2] = test system: rabbit carotid arteries (myointimal proliferation); test: Inhibition of myointimal proliferation induced in rabbit carotid arteries after lesion of the endothelium; format: in vivo; conditions: oral, 16 days
Protocol: 2) Inhibition of myointimal proliferation induced in rabbit carotid arteries after lesion of the endothelium For this purpose, rabbits from which the endothelium of the carotid artery was removed were used. Two hours before the lesion, the compound to be studied was administered orally. The treatment was continued orally, daily for 16 days, and the surface areas of the intima and of the media were then determined by morphometric measurement.

[3] = test system: human aortic smooth muscle cells; test: in vitro inhibition of proliferation of human aortic smooth muscle cells; format: cell-based; conditions: read-out: IC50 (inhibition of cell proliferation)
Protocol: "in vitro" tests were carried out using human aortic smooth muscle cells at rest (10^3 cells per test).
These cells were incubated in the presence of minimum eagle medium to which 5% of an agent inducing a cell proliferation was added. These tests were performed with various increasing doses of the compound to be studied compared with controls.

smooth muscle cells = test: Inhibition of the proliferation of smooth muscle cells (general statements); format: cell-based; conditions: qualitative statement
[4] = Solubility tests in water of SR 33805 salts; format: physicochemical; conditions: for solubility: (2) water of pH = 3.6
Protocol: (1) solubility in water at 25° C. after stirring for 72 hours
(2) solubility in water of pH = 3.6
(3) solubility after addition of the product to be tested to water at
70° C., stirring and continuation of stirring for 72 h at […]

[5] = Hygroscopicity and storage stability of SR 33805 salts; format: physicochemical
calcium translocation = test: Inhibition of calcium translocation in vitro; format: biochemical
cardiovascular system = test: Activity on the cardiovascular system
[6] = Homo sapiens, 72 h, inducing agent: foetal growth factor, 3 days incubation
[7] = Homo sapiens, Platelet, 72 h, inducing agent: platelet derived growth factor, 3 days incubation
[8] = (3) added to water at 70° C., then stirring 72 h at 25° C., read-out: solubility after addition of the product to be tested to water at 70° C., stirring and continuation of stirring for 72 h at 25° C.
[9] = water, (1) water, 25° C., stirring 72 hours, read-out: solubility in water at 25° C. after stirring for 72 hours

Q: Which “dose from which significant decrease in the total Ca content” value ([1]; artery not specified, same experimental conditions) does the source give for “3-isopropyl-1-[4-{3-[N-methyl-N-(3,4-dimethoxyphenethyl)amino]propoxy}benzenesulphonyl]-indolizine [Fantofarone]” here?
A: 100 mg/kg

Q: What about the “effect on myointimal hyperplasia” value ([2]; maximum dose 12 mg/kg) of the same molecule?
A: no significant effect

Q: And the IC50 ([3]; inducing agent: fetal calf serum, 3 days incubation)?
A: 5500 nM

Q: What about the IC50 ([3]; inducing agent: foetal growth factor, 3 days incubation) of the same molecule?
A: 2000 nM

Q: What about the IC50 ([3]; inducing agent: platelet derived growth factor, 3 days incubation) of the same molecule?
A: > 10000 nM

Q: And the “inhibition of the proliferation of smooth muscle cells” value (“inhibition … of smooth muscle cells” below) (smooth muscle cells)?
A: devoid of such properties or have shown themselves to be endowed with these properties at high, or even subtoxic, doses

Q: With COc1ccc([C@@H]2Sc3ccccc3N(CCN(C)C)C(=O)[C@@H]2OC(C)=O)cc1 [Diltiazem] as the molecule, how does the “effect on myointimal hyperplasia” value ([2]; maximum dose twice 6 mg/kg) read?
A: no significant effect

Q: What does the source list for COC(=O)C1=C(C)NC(C)=C(C(=O)OC)C1c1ccccc1[N+](=O)[O-] [Nifedipine]?
A: effect on myointimal hyperplasia ([2]; maximum dose 6 mg/kg or twice 6 mg/kg): no significant effect; IC50 [3, 6]: 1000 nM; IC50 [3, 7]: > 10000 nM

Q: Which solubility [4] does the source give for COc1ccc(CCN(C)CCCOc2ccc(S(=O)(=O)c3c(C(C)C)c4ccccc4n3C)cc2)cc1OC.O=C(O)C(=O)O [SR 33805 A, 1-Methyl-3-isopropyl-2-[4-{3-[N-methyl-N-(3,4-dimethoxyphenethyl)amino]propoxy}benzenesulphonyl]indole hydrogen oxalate] here?
A: 190 µg/mL

Q: And the solubility thermodynamic at 72 h [4, 8]?
A: 310 µg/mL

Q: And the solubility thermodynamic at 72 h [4, 9]?
A: 70 µg/mL

Q: With COc1ccc(CCN(C)CCCOc2ccc(S(=O)(=O)c3c(C(C)C)c4ccccc4n3C)cc2)cc1OC [SR 33805 B] as the molecule, how does the solubility [4] read?
A: 100 µg/mL

Q: And the solubility thermodynamic at 72 h [4, 8]?
A: 260 µg/mL

Q: And the solubility thermodynamic at 72 h [4, 9]?
A: 150 µg/mL

Q: With COc1ccc(CCN(C)CCCOc2ccc(S(=O)(=O)c3c(C(C)C)c4ccccc4n3C)cc2)cc1OC.CS(=O)(=O)O [SR 33805 C, 1-methyl-3-isopropyl-2-[4-{3-[N-methyl-N-(3,4-dimethoxyphenethyl)amino]propoxy}benzenesulphonyl]-indole methanesulphonate] as the molecule, how does the solubility [4] read?
A: 79900 µg/mL

Q: What about the solubility thermodynamic at 72 h [4, 8] of the same molecule?
A: 98300 µg/mL

Q: What about the aqueous solubility ([4]; in words, contrary to the other salts of SR 33805) of the same molecule?
A: good aqueous solubility

Q: What about the solubility thermodynamic at 72 h [4, 9] of the same molecule?
A: 67500 µg/mL

Q: And the minimal effective dose ([1]; aorta, read-out: dose from which significant inhibition of the Ca++ surcharge in the aorta)?
A: 2 mg/kg

Q: What about the minimal effective dose ([1]; mesenteric artery, read-out: dose from which significant inhibition of the Ca++ surcharge in the mesenteric artery) of the same molecule?
A: 5 mg/kg

Q: What about the hygroscopicity [5] of the same molecule?
A: no signs of hygroscopicity

Q: And the “stability under various storage conditions” value ([5]; various storage conditions)?
A: good stability

Q: And the minimal effective dose ([2]; Oryctolagus cuniculus, 384 h, read-out: dose from which significant inhibition of myointimal proliferation)?
A: 1.5 mg/kg

Q: And the “inhibition of myointimal proliferation” value ([2]; from the dose of 1.5 mg/kg, significant)?
A: -58%

Q: What about the IC50 ([3]; Homo sapiens, 72 h, inducing agent: fetal calf serum, 3 days incubation) of the same molecule?
A: 900 nM

Q: And the IC50 [3, 6]?
A: 600 nM

Q: What about the IC50 [3, 7] of the same molecule?
A: 300 nM

Q: For COc1ccc(CCN(C)CCCOc2ccc(S(=O)(=O)c3c(C(C)C)c4ccccc4n3C)cc2)cc1OC [SR 33805, 1-methyl-3-isopropyl-2-[4-{3-[N-methyl-N-(3,4-dimethoxyphenethyl)amino]propoxy}benzenesulphonyl]indole], which “inhibition … of smooth muscle cells” value (smooth muscle cells) is on record?
A: most interesting inhibitory potentiality

Q: With CNCCCOc1ccc(S(=O)(=O)c2c(C(C)C)c3ccccc3n2C)cc1 [SR 34549, 1-methyl-3-isopropyl-2-{4-[3-(N-methylamino)propoxy]benzenesulfonyl} indole] as the molecule, how does the “inhibition of the calcium translocation” value (calcium translocation) read?
A: devoid of inhibitory properties

Q: And the “activity on the cardiovascular system” value (cardiovascular system)?
A: very moderate or lack of activity

Q: And the “inhibition … of smooth muscle cells” value (smooth muscle cells)?
A: strong activity

Q: For COc1ccc(CCN(C)CCCC(C#N)(c2ccc(OC)c(OC)c2)C(C)C)cc1OC (stereo not drawn) [Verapamil], which “effect on myointimal hyperplasia” value ([2]; maximum dose twice 6 mg/kg) is on record?
A: no significant effect

Q: What about the IC50 ([3]; Homo sapiens, 72 h) of the same molecule?
A: 10000 nM

Q: What about the “inhibition … of smooth muscle cells” value (smooth muscle cells) of the same molecule?
A: devoid of such properties or have shown themselves to be endowed with these properties at high, or even subtoxic, doses
